EC50 data for 26 compounds are collected here from patent US20230192686A1, “1H-PYRROLO[2,3-B]PYRIDINES AND PREPARATION AND USES THEREOF” (BioSplice Therapeutics, Inc., priority 2021, published 2023).

This assay addresses recombinant DYRK1A kinase (Homo sapiens, UniProt Q13627). Nature of the assay: DYRK1A kinase assay (Ser/Thr 18 peptide Z-lyte FRET). It is filed as biochemical. Particulars: DYRK1A kinase activity; 15 μM ATP, 4 μM Ser/Thr peptide 18, one hour at room temperature. As to the method: Representative compounds were screened using the assay procedure for DYRK1A kinase activity as described below.
Each compound was dissolved in DMSO as a 10 mM stock and used to prepare compound source plates. Serial dilution (1:3, 11-point dose-response curves from 10 μM to 0.00016 μM) and compound transfer was performed using the ECHO 550 (Labcyte, Sunnyvale, Calif.) into 1536-well black-walled round bottom plates (Corning).
The DYRK1A kinase assay was run using the Ser/Thr 18 peptide Z-lyte assay kit according to manufacturer's instructions (Life Technologies—a Division of Thermo-Fisher). This is a non-radioactive assay using fluorescence resonance energy transfer (FRET) between coumarin and fluorescein to detect kinase activity which is represented as a ratio of coumarin emission/fluorescein emission.
Briefly, recombinant DYRK1A kinase, ATP and Ser/Thr peptide 18 were prepared in 1× Kinase buffer to final concentrations of 0.25 μg/mL, 15 μM, and 4 μM respectively. The mixture was allowed to incubate with the representative compounds for one hour at room temperature. All reactions were performed in duplicate. Unphosphorylated (“0% Control”) and phosphorylated (“100% control”) forms of Ser/Thr 18 served as control reactions. Additionally, an 11-point dose-response curve of Staurosporine (1 uM top) was run to serve as a positive compound control.
After incubation, Development Reagent A was diluted in Development Buffer then added to the reaction and allowed to further incubate for one hour at room temperature. The plate was read at Ex 400 Em 455 to detect the coumarin signal and Ex 400 Em 520 to measure the signal (EnVision Multilabel Plate Reader, PerkinElmer).
The Emission ratio (Em) was calculated as a ratio of the coumarin (C) emission signal (at 445 nm)/Fluorescein (F) emission signal (at 520 nm). The percent phosphorylation was then calculated using the following formula: [1−((Em ratio×F100%)−C100%)/((C0%−C100%)+(Em ratio×(F100%−F0%)))]. Dose-response curves were generated, and inhibitory concentration (IC50) values were calculated using non-linear regression curve fit in the Dotmatics' Studies Software (Bishops Stortford, UK).

For the compound `CN1CCN(c2ncnc3ccc(-c4c[nH]c5ncccc45)cc23)CC1` [Compound 95, 4-(4-Methylpiperazin-1-yl)-6-(1H-pyrrolo[2,3-b]pyridin-3-yl) quinazoline], the EC50 (as a rule, the midpoint of the concentration-response curve) was found to be 2 nM.

`c1cnc2[nH]cc(-c3ccc4ncnc(N5CCNC6(CC6)C5)c4c3)c2c1` [Compound 96, 6-(1H-Pyrrolo[2,3-b]pyridin-3-yl)-4-(4,7-diazaspiro[2.5]octan-7-yl) quinazoline]: the concentration for a half-maximal effect (EC50) amounted to 1 nM.

For `c1cnc2[nH]cc(-c3ccc4ncnc(N5CCNC6(CCC6)C5)c4c3)c2c1` [Compound 97, 6-(1H-Pyrrolo[2,3-b]pyridin-3-yl)-4-(5,8-diazaspiro[3.5]nonan-8-yl) quinazoline], the EC50 amounted to 2 nM.

For the compound `c1cnc2[nH]cc(-c3ccc4ncnc(N5CCNC6(CCCC6)C5)c4c3)c2c1` [Compound 98, 9-(6-(1H-Pyrrolo[2,3-b]pyridin-3-yl)quinazolin-4-yl)-6,9-diazaspiro [4.5]decane], the EC50 amounted to 2 nM.

Regarding `CN1CCC(Oc2ncnc3ccc(-c4c[nH]c5ncccc45)cc23)CC1` [Compound 99, 4-((1-Methylpiperidin-4-yl)oxy)-6-(1H-pyrrolo[2,3-b]pyridin-3-yl) quinazoline], the EC50 came to 2 nM.

With `CN1CCC(Nc2ncnc3ccc(-c4c[nH]c5ncccc45)cc23)CC1` [Compound 100, N-(1-Methylpiperidin-4-yl)-6-(1H-pyrrolo[2,3-b]pyridin-3-yl) quinazolin-4-amine], the concentration giving a half-maximal response (EC50) is 6 nM.

On to `COc1ccc(Nc2ncnc3ccc(-c4c[nH]c5ncccc45)cc23)cn1` [Compound 101, N-(6-Methoxypyridin-3-yl)-6-(1H-pyrrolo[2,3-b]pyridin-3-yl) quinazolin-4-amine], for which the EC50 stood at 6 nM.

As to `CN1CCC(Oc2ccc(Nc3ncnc4ccc(-c5c[nH]c6ncccc56)cc34)cn2)CC1` [Compound 102, N-(6-((1-Methylpiperidin-4-yl)oxy)pyridin-3-yl)-6-(1H-pyrrolo[2,3-b]pyridin-3-yl)quinazolin-4-amine], the EC50 worked out at 2 nM.

On to `c1cncc(CNc2ncnc3ccc(-c4c[nH]c5ncccc45)cc23)c1` [Compound 103, N-(Pyridin-3-ylmethyl)-6-(1H-pyrrolo[2,3-b]pyridin-3-yl)quinazolin-4-amine], for which the EC50 worked out at 1 nM.

In the case of `CN1CCN(c2ccc(CNc3ncnc4ccc(-c5c[nH]c6ncccc56)cc34)cn2)CC1` [Compound 104, N-((6-(4-Methylpiperazin-1-yl)pyridin-3-yl)methyl)-6-(1H-pyrrolo[2,3-b]pyridin-3-yl)quinazolin-4-amine], the EC50 stood at 11 nM.

As for `CN1CCN(c2cc(CNc3ncnc4ccc(-c5c[nH]c6ncccc56)cc34)ccn2)CC1` [Compound 105, N-((2-(4-Methylpiperazin-1-yl)pyridin-4-yl)methyl)-6-(1H-pyrrolo [2,3-b]pyridin-3-yl)quinazolin-4-amine], the EC50 stood at 4 nM.

For `CN1CCC(NC(=O)c2ncnc3ccc(-c4c[nH]c5ncccc45)cc23)CC1` [Compound 106, N-(1-Methylpiperidin-4-yl)-6-(1H-pyrrolo[2,3-b]pyridin-3-yl) quinazoline-4-carboxamide], the half-maximal effective concentration (EC50) came to 3 nM.

For the compound `O=C(c1ncnc2ccc(-c3c[nH]c4ncccc34)cc12)N1CCNC2(CC2)C1` [Compound 108, (6-(1H-Pyrrolo[2,3-b]pyridin-3-yl)quinazolin-4-yl)(4,7-diazaspiro [2.5]octan-7-yl)methanone], the EC50 came out at 52 nM.

In the case of `COc1ccnc2[nH]cc(-c3ccn4ncc(C(=O)NC5CCN(C)CC5)c4c3)c12` [Compound 128, 5-(4-Methoxy-1H-pyrrolo[2,3-b]pyridin-3-yl)-N-(1-methylpiperidin-4-yl)pyrazolo[1,5-a]pyridine-3-carboxamide], the EC50 amounted to 1 nM.

As to `Cn1cc(-c2ccnc3[nH]cc(-c4ccc5ncccc5c4)c23)cn1` [Compound 186, 6-(4-(1-methyl-1H-pyrazol-4-yl)-1H-pyrrolo[2,3-b]pyridin-3-yl) quinoline], the EC50 stood at 10 nM.

On to `O=C1CC2(CCNCC2)Oc2cc(-c3c[nH]c4ncc(Cl)cc34)ccc21` [Compound 226, 7-(5-Chloro-1H-pyrrolo[2,3-b]pyridin-3-yl)spiro[chromane-2,4′-piperidin]-4-one], for which the EC50 came out at 36 nM.

With `CN1CCN(C(=O)c2cnn3ccc(-c4c[nH]c5ncc(F)cc45)cc23)CC1` [Compound 257, (5-(5-Fluoro-1H-pyrrolo[2,3-b]pyridin-3-yl)pyrazolo[1,5-a]pyridin-3-yl)(4-methylpiperazin-1-yl)methanone], the EC50 was 16 nM.

In the case of `Cc1cnc2[nH]cc(-c3ccc4nccn4c3)c2c1` [Compound 280, 6-(5-methyl-1H-pyrrolo[2,3-b]pyridin-3-yl)imidazo[1,2-a]pyridine], the EC50 was determined as 4 nM.

For `Cc1nc2c(F)cc(-c3c[nH]c4ncc(C5=CCN(C)CC5)cc34)cc2n1C(C)C` [Compound 325, 4-Fluoro-1-isopropyl-2-methyl-6-(5-(1-methyl-1,2,3,6-tetrahydropyridin-4-yl)-1H-pyrrolo[2,3-b]pyridin-3-yl)-1H-benzo[d]imidazole], the EC50 stood at 2 nM.

In the case of `Cc1nc2c(F)cc(-c3c[nH]c4ncc(N5CCN(C)CC5)cc34)cc2n1C(C)C` [Compound 367, 4-Fluoro-1-isopropyl-2-methyl-6-(5-(4-methylpiperazin-1-yl)-1H-pyrrolo[2,3-b]pyridin-3-yl)-1H-benzo[d]imidazole], the EC50 came to 2 nM.

Turning to `Cc1nc2c(F)cc(-c3c[nH]c4ncc(CN5CCN(C)CC5)cc34)cc2n1C(C)C` [Compound 409, 4-Fluoro-1-isopropyl-2-methyl-6-(5-((4-methylpiperazin-1-yl)methyl)-1H-pyrrolo[2,3-b]pyridin-3-yl)-1H-benzo[d]imidazole], the EC50 was found to be 13 nM.

Take `CN1CCN(Cc2cnc3[nH]cc(-c4ccc5c(c4)C(C)(C)CNC5=O)c3c2)CC1` [Compound 435, 4,4-dimethyl-6-(5-((4-methylpiperazin-1-yl)methyl)-1H-pyrrolo[2,3-b]pyridin-3-yl)-3,4-dihydroisoquinolin-1(2H)-one]: the 50% effective concentration (EC50) was found to be 96 nM.

For the compound `CN1CCN(Cc2cnc3[nH]cc(-c4ccc5nccnc5c4)c3c2)CC1` [Compound 439, 6-(5-((4-Methylpiperazin-1-yl)methyl)-1H-pyrrolo[2,3-b]pyridin-3-yl) quinoxaline], the EC50 was 16 nM.

`Cc1nc2c(F)cc(-c3c[nH]c4ncc(C(=O)NC5CCN(C)CC5)cc34)cc2n1C(C)C` [Compound 451, 3-(4-Fluoro-1-isopropyl-2-methyl-1H-benzo[d]imidazol-6-yl)-N-(1-methylpiperidin-4-yl)-1H-pyrrolo[2,3-b]pyridine-5-carboxamide]: the EC50 stood at 4 nM.

As for `CN1CCC(NC(=O)c2cnc3[nH]cc(-c4ccc5ncncc5c4)c3c2)CC1` [Compound 482, N-(1-Methylpiperidin-4-yl)-3-(quinazolin-6-yl)-1H-pyrrolo[2,3-b] pyridine-5-carboxamide], the concentration giving a half-maximal response (EC50) came out at 15 nM.

As for `Cc1nc2c(F)cc(-c3c[nH]c4ncc(C(=O)N5CCN(C)CC5)cc34)cc2n1C(C)C` [Compound 493, (3-(4-Fluoro-1-isopropyl-2-methyl-1H-benzo[d]imidazol-6-yl)-1H-pyrrolo[2,3-b]pyridin-5-yl)(4-methylpiperazin-1-yl)methanone], the EC50 turned out to be 7 nM.
